Data taken from publication PMC10716126, “Enzyme mechanistic studies of NMA1982, a protein tyrosine phosphatase and potential virulence factor in Neisseria meningitidis” (Scientific Reports, 2023).

Key:
NMA1982 [1] = molecular target: T1, NMA1982 (Neisseria meningitidis, UniProt A1KVD0)
T1 construct: gene NMC1647

NMA1982 [2] = molecular target: T1, NMA1982; remark: listed apart in the source

T1 sequence (A1KVD0 entry or part of it): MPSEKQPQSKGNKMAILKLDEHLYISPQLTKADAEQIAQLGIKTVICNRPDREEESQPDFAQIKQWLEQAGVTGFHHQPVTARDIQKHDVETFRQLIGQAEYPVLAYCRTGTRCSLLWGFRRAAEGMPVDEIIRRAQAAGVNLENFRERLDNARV

Row | SMILES | IC50 (NMA1982 [1]) [µM] | Km (NMA1982 [2]) [µM]
1 | [O]=[V]([OH])([OH])[OH] [sodium orthovanadate] | 161 | –
2 | Cc1cc(=O)oc2c(F)c(OP(=O)(O)O)c(F)cc12 [DiFMUP] | – | 35
